Entries after “also recorded” stand apart in the source; their conditions may differ.
How the values were obtained:
NeuN+ cells = assay: NeuN positive cell density in dorsal hippocampus after neonatal HI; format: in vivo, mouse
Experimental: Neuronal nuclei (NeuN), growth associated protein 43 (GAP-43), synapsin I (SYN), vesicular glutamate transporter 1 (VGLUT1), Glial Fibrillary Acidic Protein (GFAP) and ionized calcium-binding adapter molecule 1 (Iba-1) were visualized in the cornu ammonis (CA) and dentate gyrus (DG) of the dorsal hippocampus by immunohistochemistry. Briefly, following heat-induced antigen retrieval with 0.01 M citrate buffer (pH 6, 0.05% Tween 20) for 3×5 min, sections were washed 3×5 min with PBS-T (0.05% Tween 20), non-specific protein binding was reduced by incubation with blocking buffer [4% normal donkey serum (NeuN and Iba-1), 1% bovine serum albumin (GAP-43 and SYN), 3% normal goat serum (VGLUT1), 2% bovine serum albumin (GFAP) in PBS-T] for 1 h at room temperature (RT). Tissue was then incubated with the primary antibody [anti-NeuN biotinylated (1:200, MAB 377B, Millipore, Mass., USA), anti-GAP-43 (1:1000, MAB347, Millipore, Mass., USA), anti-SYN (1:150, SC-7379, Santa Cruz, Calif., USA), anti-VGLUT1 (1:500, AB5905, Millipore, Mass., USA), anti-GFAP (1:200, Z0334, Dako, Stockholm, Sweden), anti-Iba-1 (1:500, 019-19741, Wako, Osaka, Japan)] in blocking buffer overnight at 4° C. One slide per staining batch was incubated only with blocking buffer without primary antibody and used as a negative control. Next, sections were washed 3×5 min with PBS-T and incubated with the secondary antibody [rabbit-anti mouse biotinylated Ig (1:200, GAP-43, E0354, Dako, Stockholm, Sweden), donkey-anti goat biotinylated Ig (1:200, SYN, 705065147, Jackson ImmunoResearch Inc., PA, USA), Alexa Fluor 488 goat-anti guinea pig Ig (1:500, VGLUT1, A11073, Molecular Probes, Oregon, USA), Alexa Fluor 488 goat-anti rabbit (1:2000, GFAP, A11034, Molecular Probes, Oregon, USA), donkey-anti rabbit biotinylated (1:500, Iba-1, 711-065-152, Jackson ImmunoResearch Inc., PA, USA), in blocking buffer for 1 h at RT. After washing 3×5 min with PBS-T, sections were incubated with Streptavidin-Cy3 (1:100 (GAP-43, SYN), 1:300 (NeuN), S6402, Sigma-Aldrich, Missouri, USA) in blocking buffer for 1 h at RT. Then, sections were washed 3×5 min with PBS-T, mounted with Pro Long Gold (P36931, Life Technologies, CA, USA) and cover slipped for 24 h before being sealed with nail polish. […]
(§1) NeuN positive cells, GFAP positive relative area, as well as GAP-43, SYN, and VGLUT1 positive puncta were counted by using MetaMorph software (ver. 7.8.6, Molecular Devices, CA, USA) on confocal images obtained with a 20× (NeuN and GFAP) or 63× (GAP-43, SYN, and VGLUT1) objective (Carl Zeiss LSM 700 Laser Scanning Microscope, Jena, Germany). Iba-1 positive cell somata were counted on bright field images obtained with a 20× objective (Nikon Eclipse 80i). […]

VGLUT1+ puncta = assay: VGLUT1 immunostaining of dorsal hippocampus after neonatal HI; format: in vivo, mouse; conditions: between groups or hemispheres
Experimental: Neuronal nuclei (NeuN), growth associated protein 43 (GAP-43), synapsin I (SYN), vesicular glutamate transporter 1 (VGLUT1), Glial Fibrillary Acidic Protein (GFAP) and ionized calcium-binding adapter molecule 1 (Iba-1) were visualized in the cornu ammonis (CA) and dentate gyrus (DG) of the dorsal hippocampus by immunohistochemistry. Briefly, following heat-induced antigen retrieval with 0.01 M citrate buffer (pH 6, 0.05% Tween 20) for 3×5 min, sections were washed 3×5 min with PBS-T (0.05% Tween 20), non-specific protein binding was reduced by incubation with blocking buffer [4% normal donkey serum (NeuN and Iba-1), 1% bovine serum albumin (GAP-43 and SYN), 3% normal goat serum (VGLUT1), 2% bovine serum albumin (GFAP) in PBS-T] for 1 h at room temperature (RT). […]
as §1

[1] = tested on: mice subjected to neonatal hypoxia-ischemia; conditions: single i.c.v. injection 1 h after HI, wild-type mice tested as adults (42 days later); not in C3aR−/− mice; cited from earlier work
[2] = tested on: cultured primary astrocytes; conditions: cited from earlier work
[3] = tested on: newly differentiated neurons; conditions: in vitro; cited from earlier work
serum carboxypeptidases = conditions: systemically administered C3a; cited from earlier work

C3a: Purified human C3a peptide (Complement Technologies), C3a receptor agonist, amino acid sequence SEQ ID NO: 1
neuronal density in CA1 and CA3, ipsilesional vs contralesional hemisphere (NeuN+ cells; both HI groups, p<0.01 and p<0.05): decreased in the ipsilesional hemisphere
NeuN+ cell density in the DG (NeuN+ cells; data not shown): No effect
number of NeuN+ cells in injured CA3 vs sham mice (NeuN+ cells; p<0.01): lower compared with sham mice
number of NeuN+ cells in injured CA1 vs sham mice (NeuN+ cells; p<0.05 for PBS): of PBS but not C3a treated mice was lower compared with sham mice
density or average area of VGLUT1+ puncta in CA1 or dentate gyrus (VGLUT1+ puncta): did not find any differences
HI-induced cognitive/memory impairment after single intraventricular C3a [1]: prevented HI-induced cognitive impairment; also recorded: ameliorated memory impairment
ischemia-induced upregulation of GFAP ([2]; cultured primary astrocytes, C3aR-dependent): attenuated ischemia-induced upregulation of GFAP
survival of astrocytes ([2]; in vitro ischemia model): increased the survival of astrocytes
neurite outgrowth [3]: increased neurite outgrowth
stability in serum (serum carboxypeptidases): rapid inactivation by serum carboxypeptidases

From US11266715B2, “C3A receptor agonists for use against ischemic brain injury, stroke, traumatic brain injury, spinal cord injury and neurodegenerative disorders” (priority 2016, dated 2022)
